In ChEMBL document CHEMBL3627606, “Development of Novel, CNS Penetrant Positive Allosteric Modulators for the Metabotropic Glutamate Receptor Subtype 1 (mGlu1), Based on an N-(3-Chloro-4-(1,3-dioxoisoindolin-2-yl)phenyl)-3-methylfuran-2-carboxamide Scaffold, That Potentiate Wild Type and Mutant mGlu1 Receptors Found in …” (J Med Chem, 2015):

Experiments:
[1] = molecular target: Metabotropic glutamate receptor 1 (Homo sapiens, UniProt Q13255); test: Positive allosteric modulation of human mGlu1 receptor in HEK293 cells assessed as potentiation of glutamate-induced calcium mobiliztion by Fluo-4AM dye based fluorescence analysis relative to glutamate; format: functional, cell-based
Sequence of Metabotropic glutamate receptor 1 (Q13255 19-1194 limits assumed): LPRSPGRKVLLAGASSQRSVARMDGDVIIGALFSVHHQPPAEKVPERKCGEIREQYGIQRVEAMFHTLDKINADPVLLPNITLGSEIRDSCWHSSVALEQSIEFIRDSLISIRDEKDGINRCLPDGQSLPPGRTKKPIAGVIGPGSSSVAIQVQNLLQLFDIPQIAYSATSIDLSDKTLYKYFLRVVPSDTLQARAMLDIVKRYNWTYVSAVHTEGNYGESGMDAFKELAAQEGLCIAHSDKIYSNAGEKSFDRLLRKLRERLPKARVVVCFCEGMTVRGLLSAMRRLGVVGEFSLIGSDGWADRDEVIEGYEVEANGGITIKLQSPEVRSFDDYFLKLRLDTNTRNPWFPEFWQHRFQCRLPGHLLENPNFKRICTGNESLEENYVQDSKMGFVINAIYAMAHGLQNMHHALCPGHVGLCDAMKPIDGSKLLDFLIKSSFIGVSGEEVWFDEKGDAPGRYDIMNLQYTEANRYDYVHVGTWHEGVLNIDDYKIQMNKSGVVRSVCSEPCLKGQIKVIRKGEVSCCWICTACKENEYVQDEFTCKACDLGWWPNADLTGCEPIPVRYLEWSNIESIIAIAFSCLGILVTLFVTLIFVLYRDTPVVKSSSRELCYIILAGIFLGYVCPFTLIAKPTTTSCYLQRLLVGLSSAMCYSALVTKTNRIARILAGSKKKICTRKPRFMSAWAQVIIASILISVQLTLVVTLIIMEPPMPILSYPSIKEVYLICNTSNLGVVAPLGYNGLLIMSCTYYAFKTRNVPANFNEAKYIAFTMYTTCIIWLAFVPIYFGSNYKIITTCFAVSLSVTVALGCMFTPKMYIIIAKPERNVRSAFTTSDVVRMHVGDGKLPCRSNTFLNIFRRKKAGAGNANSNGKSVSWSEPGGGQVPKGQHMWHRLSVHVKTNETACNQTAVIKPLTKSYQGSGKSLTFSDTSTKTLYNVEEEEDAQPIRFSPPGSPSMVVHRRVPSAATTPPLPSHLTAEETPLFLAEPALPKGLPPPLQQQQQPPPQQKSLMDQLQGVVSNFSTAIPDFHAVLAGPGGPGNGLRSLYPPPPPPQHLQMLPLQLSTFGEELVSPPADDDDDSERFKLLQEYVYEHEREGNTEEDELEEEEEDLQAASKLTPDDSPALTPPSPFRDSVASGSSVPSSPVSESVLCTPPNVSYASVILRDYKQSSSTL

[2] = system: Brain; test: Drug concentration in C57BL/6 mouse brain at 100 mg/kg, ip administered as single dose; format: ADME, organism-based; settings: in vivo, read-out: Drug uptake
[3] = Ratio of drug level in brain to plasma of Sprague-Dawley rat at 0.2 mg/kg, iv after 0.25 hrs by LC-MS/MS analysis; settings: read-out: BPR
[4] = Intrinsic clearance in human liver microsomes at 1 uM by LC-MS/MS analysis; format: ADME; settings: read-out: CLH
[5] = molecular target: T1, Cytochrome P450 1A2 (Homo sapiens, UniProt P05177); test: Inhibition of CYP1A2 in human liver microsomes by LC-MS/MS analysis; format: ADME
T1 sequence (P05177 whole entry): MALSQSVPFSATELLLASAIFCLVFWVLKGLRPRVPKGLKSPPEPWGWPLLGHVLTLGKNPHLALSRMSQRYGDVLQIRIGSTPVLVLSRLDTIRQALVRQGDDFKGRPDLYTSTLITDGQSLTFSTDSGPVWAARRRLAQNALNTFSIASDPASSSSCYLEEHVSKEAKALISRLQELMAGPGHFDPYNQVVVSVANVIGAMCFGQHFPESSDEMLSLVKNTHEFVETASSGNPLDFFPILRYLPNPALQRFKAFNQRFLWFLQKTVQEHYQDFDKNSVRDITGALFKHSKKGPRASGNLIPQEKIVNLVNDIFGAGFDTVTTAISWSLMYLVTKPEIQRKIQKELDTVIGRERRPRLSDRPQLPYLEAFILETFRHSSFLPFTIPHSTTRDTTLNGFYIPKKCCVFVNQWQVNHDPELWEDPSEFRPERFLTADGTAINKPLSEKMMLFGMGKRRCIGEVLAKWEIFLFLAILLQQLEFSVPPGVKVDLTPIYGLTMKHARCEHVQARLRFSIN

[6] = molecular target: Cytochrome P450 2D6 (Homo sapiens, UniProt P10635); test: Inhibition of CYP2D6 in human liver microsomes by LC-MS/MS analysis; format: ADME
Sequence of Cytochrome P450 2D6 (P10635 whole entry): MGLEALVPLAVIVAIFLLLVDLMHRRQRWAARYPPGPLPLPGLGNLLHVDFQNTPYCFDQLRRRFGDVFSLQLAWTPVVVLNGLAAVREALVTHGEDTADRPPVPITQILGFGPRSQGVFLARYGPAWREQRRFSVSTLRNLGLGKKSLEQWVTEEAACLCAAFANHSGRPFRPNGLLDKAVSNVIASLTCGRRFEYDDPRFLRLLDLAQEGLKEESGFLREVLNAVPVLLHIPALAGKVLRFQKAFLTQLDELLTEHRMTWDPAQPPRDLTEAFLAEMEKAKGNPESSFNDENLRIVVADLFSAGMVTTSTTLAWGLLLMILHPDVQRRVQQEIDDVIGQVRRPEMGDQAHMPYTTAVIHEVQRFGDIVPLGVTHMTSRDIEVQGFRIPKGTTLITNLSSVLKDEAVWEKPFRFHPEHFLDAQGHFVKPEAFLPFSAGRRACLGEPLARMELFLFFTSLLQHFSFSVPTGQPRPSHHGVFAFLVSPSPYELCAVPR

## Cc1ccoc1C(=O)Nc1ccc(N2C(=O)c3cccc(F)c3C2=O)c(Cl)c1
[1]
  %max: 98%
[2]
  concentration: 9.2 µM
[3]
  Kp at 0.25 h: 1.02
[4]
  CLint scaled at 1 µM: 3.1 mL/min/kg
[5]
  IC50: 25.2 µM
[6]
  IC50: > 30 µM
